Reference: patent US20030028927A1 (priority 2001, published 2003)

Experiments:
Type in all cases: in vivo, Arabidopsis thaliana
[1] = test system: Arabidopsis seedlings (ecotypes Col, Ler, Shadara); experiment: Morphological phenotypes of Arabidopsis ecotype seedlings grown on Hsp90 inhibitor
Procedure: In most cases phenotypes were distinct and were not accompanied by a general failure to thrive. […] Next, several Arabidopsis ecotypes were tested from diverse geographic locations and environments, including Cape Verde Island ([…], Tsu-1, Mr-0, and Ts-1. […] Particular phenotypes were not restricted to particular ecotypes, but the frequencies at which they appeared varied reproducibly between them. […] 30% of seedlings had these phenotypes. […] also frequently produced distorted rosettes with juxtaposed cotyledons. Dwarfed plants with cotyledons that accumulated purple pigment were most common in Col. Curled hypocotyls were most frequent in Ler. Ecotypes were crossed several times in independent experiments to produce F1 seeds. […] Plates were unwrapped after 48 hrs at 22° C., were incubated in continuous light at 150 μmol m^-2 sec^-1 (unless otherwise indicated), and were analyzed after eight and ten days of growth.

[2] = test system: F1 seedlings (Col x Ler and Ler x Cvi); experiment: Phenotypes of F1 progeny of accession crosses with GdA; conditions: Col x Ler and Ler x Cvi F1, in the presence of GdA
Excerpt: To investigate the interplay of genetic variation, stochastic processes, and their dependence on the Hsp90 buffering system, Applicants tested crosses of different, nearly homozygous accessions (Col x Ler and Ler x Cvi) that are believed to have been recentlyevolving independently. If stochastic events contribute to phenotypes predisposed by genotype, then mixing genomes might disrupt developmental stability in F1 progeny. Further, if Hsp90 buffers developmental stability against such events, reducing Hsp90 function in nearly identical F1 progeny should increase phenotypic variance. […] Phenotypes were stronger and more frequent in seedlings with a maternal contribution from Ler (˜20 to 25% affected seedlings) than with maternal contributions from Col or Cvi (˜10 to 15%).
(§1) Ecotypes were crossed several times in independent experiments to produce F1 seeds. […] Plates were unwrapped after 48 hrs at 22° C., were incubated in continuous light at ˜150 μmol m^−2 sec^−1 (unless otherwise indicated), and were analyzed after eight and ten days of growth.

[3] = test system: Cvi/Ler RI line seedlings; experiment: RI line specific phenotypes on GdA
Excerpt: To test this, recombinant inbred lines (RI lines) were examined, which originated from crosses between two ecotypes followed by single-seed self-propagation for eight generations. Each line should be homozygous at almost all loci, with different lines representing various mosaics of the parental genomes (Alonso-Blanco et al., 1998). If a decrease in Hsp90 function uncovers novel phenotypes due to natural variation, GdA-induced phenotypes should vary between RI lines but tend to be shared within them. Here, work with 50 RI lines derived from a cross between Cvi and Ler (Cvi/Ler, CS22477 base set, ABRC) is presented. These lines are characterized by high rates of recombination and low segregation distortion (Alonso-Blanco et al., 1998). Col/Ler RI lines behaved similarly, although phenotypic variation was not quite so dramatic.
as §1
To minimize variation and provide more objective comparisons, two RI lines were plated together on each square plate. All sets were cold treated for 48 hrs. Foil-wrapped plates incubated at 22° C. were treated as described above. Since development was more rapid at 27° C., these plates were unwrapped after 24 hrs instead of 48 hrs. Phenotypes were scored at eight and ten days.

[4] = RI line 082, S-shaped rosette with vertically oriented leaf blade of cotyledons
[5] = RI line 104, purple pigmentation of cotyledons and true leaves
[6] = RI line 113, curled hypocotyl with root partially extended into air
[7] = RI line 119, deformed, radially-symmetric and missing true leaves
[8] = RI line 120, radially-symmetric and missing true leaves
[9] = RI line 122, distorted rosette, juxtaposed or fused cotyledons

## COC1=C2C[C@@H](C)C[C@H](OC)[C@H](O)[C@@H](C)/C=C(\C)[C@H](OC(N)=O)[C@@H](OC)/C=C\C=C(/C)C(=O)NC(=CC1=O)C2=O [GdA, geldanamycin]
[1]; 1.0 μM GdA, Col and Ler
  seedlings showing strong morphological abnormalities: 5-8%
[1]; progeny of selfed Shadara plants with subtle true leaf abnormalities, with GdA
  phenotype frequency in selfed progeny: 75%
[2]
  frequency of abnormal phenotypes in F1 progeny: up to 25%
[3]; [4]
  Frequency with 1 μM GdA at 22° C.: 32%
  Frequency with 1 μM GdA at 22° C. (count): 64/201
[3]; [5]
  Frequency with 1 μM GdA at 22° C.: 34%
  Frequency with 1 μM GdA at 22° C. (count): 29/84
[3]; RI line 104, root morphology
  Frequency with 1 μM GdA at 22° C.: 52%
  Frequency with 1 μM GdA at 22° C. (count): 44/84
[3]; [6]
  Frequency with 1 μM GdA at 22° C.: 32%
  Frequency with 1 μM GdA at 22° C. (count): 9/28
[3]; [7]
  Frequency with 1 μM GdA at 22° C.: 68%
  Frequency with 1 μM GdA at 22° C. (count): 19/28
[3]; [8]
  Frequency with 1 μM GdA at 22° C.: 64%
  Frequency with 1 μM GdA at 22° C. (count): 18/29
[3]; [9]
  Frequency with 1 μM GdA at 22° C.: 28%
  Frequency with 1 μM GdA at 22° C. (count): 44/158
[3]; RI line 134, bent hypocotyls
  Frequency with 1 μM GdA at 22° C.: 88%
  Frequency with 1 μM GdA at 22° C. (count): 49/56
[3]; RI line 159, root morphology
  Frequency with 1 μM GdA at 22° C.: 50%
  Frequency with 1 μM GdA at 22° C. (count): 53/105
[3]; relative to plants grown without GdA at 22° C.
  decrease of growth rate: 0.5 to 1 days
